How the values were obtained:
Assay in all cases: functional complementation in beta-carotene-accumulating E. coli, HPLC of carotenoids
Format in all cases: cell-based
Conditions in all cases: E. coli BL21(DE3) with pACCAR16ΔcrtX, 16 °C, 16 h
[1] = target: T1, CsBCH1 (Citrus sinensis, UniProt Q0QVY5)
T1 construct: gene Chyb; full ORF in pHIS8 (His tag), E. coli BL21(DE3)
T1 sequence (Q0QVY5 1-311): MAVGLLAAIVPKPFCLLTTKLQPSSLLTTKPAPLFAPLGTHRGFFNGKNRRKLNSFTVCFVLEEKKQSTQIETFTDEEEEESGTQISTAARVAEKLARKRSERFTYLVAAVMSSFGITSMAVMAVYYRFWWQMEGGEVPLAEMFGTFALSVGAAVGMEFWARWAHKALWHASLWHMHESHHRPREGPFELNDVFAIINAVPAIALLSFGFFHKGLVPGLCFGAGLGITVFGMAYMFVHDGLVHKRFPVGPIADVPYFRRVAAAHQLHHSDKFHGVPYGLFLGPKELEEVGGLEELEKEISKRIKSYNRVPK

[2] = target: T2, CsBCH2b (Citrus sinensis, UniProt A0ACB8LPZ5)
T2 construct: gene KPL71_006397; full ORF in pHIS8 (His tag), E. coli BL21(DE3); allele found in pummelo and sweet orange, two non-synonymous sites versus CsBCH2a

[3] = target: T3, CsBCH2a (Citrus sinensis, UniProt A0ACB8LPZ5)
T3 construct: gene KPL71_006397; full ORF in pHIS8 (His tag), E. coli BL21(DE3); allele identical in mandarin and sweet orange, two non-synonymous sites versus CsBCH2b
T3 sequence (A0ACB8LPZ5 entry or part of it): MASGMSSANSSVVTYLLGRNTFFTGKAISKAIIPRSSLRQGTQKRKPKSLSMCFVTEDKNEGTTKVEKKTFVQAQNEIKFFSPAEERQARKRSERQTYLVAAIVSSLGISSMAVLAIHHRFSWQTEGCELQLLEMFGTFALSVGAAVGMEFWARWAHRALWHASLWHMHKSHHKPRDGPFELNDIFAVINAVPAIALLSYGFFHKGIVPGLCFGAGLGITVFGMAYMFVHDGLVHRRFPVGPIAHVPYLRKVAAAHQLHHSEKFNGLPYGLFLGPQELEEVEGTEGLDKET

T2 sequence (A0ACB8LPZ5 entry or part of it): as above

CC1=C(/C=C/C(C)=C/C=C/C(C)=C/C=C/C=C(C)/C=C/C=C(C)/C=C/C2=C(C)C[C@@H](O)CC2(C)C)C(C)(C)CCC1 [β-cryptoxanthin]
functional complementation in beta-carotene-accumulating E. coli, HPLC of carote ([1]; intermediate formed in the cells, hydroxylated on to zeaxanthin): mono-hydroxylated intermediate β-cryptoxanthin and the di-hydroxylated product zeaxanthin

CC1=C(/C=C/C(C)=C/C=C/C(C)=C/C=C/C=C(C)/C=C/C=C(C)/C=C/C2=C(C)CCCC2(C)C)C(C)(C)CCC1 [β-carotene]
functional complementation in beta-carotene-accumulating E. coli, HPLC of carote [2]: CsBCH2a and CsBCH2b hydroxylated β-carotene to generate only β-cryptoxanthin in E. coli
functional complementation in beta-carotene-accumulating E. coli, HPLC of carote [1]: CsBCH1 effectively hydroxylated the two β-rings of β-carotene
functional complementation in beta-carotene-accumulating E. coli, HPLC of carote [3]: CsBCH2a and CsBCH2b hydroxylated β-carotene to generate only β-cryptoxanthin in E. coli

From article PMC10018782, “Citrus β-carotene hydroxylase 2 (BCH2) participates in xanthophyll synthesis by catalyzing the hydroxylation of β-carotene and compensates for BCH1 in citrus carotenoid metabolism” (Horticulture Research, 2022)
